In US7411090B2, “Process for the recovery of citric acid” (A.E. Staley Manufacturing Company, priority 2003, dated 2008):

Experiment: Extraction into non-amine (NA) solvent from solutions containing both glucose and citric acid
Assay type: physicochemical
Settings: selectivity decreases with increase in distribution of citric into solvent phase
Description: The citric/glucose selectivity decreases with the increase in the distribution of citric into the solvent phase.

citric/glucose selectivity of extraction into the NA solvent: selectively extracted
SMILES: O=C(O)CC(O)(CC(=O)O)C(=O)O [citric acid]
